For one molecule, EC50 results are on record in article PMC4830392 (Biochemical pharmacology, 2015).

Structures are written as SMILES.

The target of the test is OXE receptor (Felis catus, UniProt A0ABI7XKF2). Briefly: actin polymerization. Type of test: cell-based.
Sequence of OXE receptor (A0ABI7XKF2 1-379): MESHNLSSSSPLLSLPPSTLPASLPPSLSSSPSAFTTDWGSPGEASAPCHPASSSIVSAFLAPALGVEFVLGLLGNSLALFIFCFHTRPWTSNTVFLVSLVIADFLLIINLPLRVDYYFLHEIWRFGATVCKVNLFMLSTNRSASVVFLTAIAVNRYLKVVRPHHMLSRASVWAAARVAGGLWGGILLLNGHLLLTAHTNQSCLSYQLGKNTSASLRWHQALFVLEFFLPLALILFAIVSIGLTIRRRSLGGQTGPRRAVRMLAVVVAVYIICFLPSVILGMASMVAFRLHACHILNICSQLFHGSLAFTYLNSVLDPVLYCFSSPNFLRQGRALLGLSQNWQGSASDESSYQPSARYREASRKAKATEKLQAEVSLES

As a reminder, the EC50 is the concentration at which the effect is half-maximal. Consider `CCCCC/C=C\C/C=C\C/C=C\C=C\C(=O)CCCC(=O)O` [5-oxo-ETE, 5-oxo-6E,8Z,11Z,14Z-eicosatetraenoic acid], for which a half-maximal response (EC50) required 720 pM.
